Experimental data taken from PubChem BioAssay AID330 (DTP/NCI, 2004).
Where “and” joins values, the source holds several entries; their conditions need not be identical. Equal values may be shown once. Inconclusive results and toxic doses are left out.

Tested on: P388 leukemia ip, CD2F1 mice, survival T/C
Test: NCI In Vivo Anticancer Drug Screen. Data for tumor model P388 Leukemia (intraperitoneal) in CD2F1 (CDF1) mice
Conditions: endpoint: median survival time, higher = longer survival
Summary of the method: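 Mice carrying the transplanted tumor received test compound or vehicle. Survival was recorded in each group, and the value is the treated-group measurement divided by that of the vehicle-treated control group.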

[1] = dose: 50.0 mg/kg/injection, schedule: Q01DX005 (ip), vehicle: Klucel (hydroxypropylcellulose) (HPC)
[2] = dose: 100.0 mg/kg/injection, schedule: Q01DX005 (ip), vehicle: Klucel (hydroxypropylcellulose) (HPC)
[3] = dose: 200.0 mg/kg/injection, schedule: Q01DX005 (ip), vehicle: Klucel (hydroxypropylcellulose) (HPC)
[4] = dose: 50.0 mg/kg/injection, schedule: Q01DX009 (ip), vehicle: saline with Tween-80
[5] = dose: 100.0 mg/kg/injection, schedule: Q01DX009 (ip), vehicle: saline with Tween-80
[6] = dose: 200.0 mg/kg/injection, schedule: Q01DX009 (ip), vehicle: saline with Tween-80
[7] = dose: 50.0 mg/kg/injection, schedule: Q01DX009 (ip), vehicle: saline
[8] = dose: 60.0 mg/kg/injection, schedule: Q01DX005 (ip), vehicle: saline with Tween-80
[9] = dose: 120.0 mg/kg/injection, schedule: Q01DX005 (ip), vehicle: saline with Tween-80
[10] = dose: 240.0 mg/kg/injection, schedule: Q01DX005 (ip), vehicle: saline with Tween-80
[11] = dose: 25.0 mg/kg/injection, schedule: Q01DX009 (ip), vehicle: other
[12] = dose: 50.0 mg/kg/injection, schedule: Q01DX009 (ip), vehicle: other
[13] = dose: 25.0 mg/kg/injection, schedule: Q01DX005 (ip), vehicle: Klucel (hydroxypropylcellulose) (HPC)
[14] = dose: 50.0 mg/kg/injection, schedule: Q01DX009 (ip), vehicle: Klucel (hydroxypropylcellulose) (HPC)
[15] = dose: 100.0 mg/kg/injection, schedule: Q01DX009 (ip), vehicle: Klucel (hydroxypropylcellulose) (HPC)
[16] = dose: 50.0 mg/kg/injection, schedule: Q01DX005 (ip), vehicle: saline with Tween-80
[17] = dose: 100.0 mg/kg/injection, schedule: Q01DX005 (ip), vehicle: saline with Tween-80
[18] = dose: 50.0 mg/kg/injection, schedule: Q01DX005 (ip), vehicle: saline
[19] = dose: 100.0 mg/kg/injection, schedule: Q01DX005 (ip), vehicle: saline
[20] = dose: 200.0 mg/kg/injection, schedule: Q01DX005 (ip), vehicle: saline

In the case of CCC(=O)Nc1nnc(SCCCCCCSc2nnc(NC(=O)CC)s2)s1, the T/C [1] is reported as 90 % of control, the T/C [2] is reported as 88 % of control and the T/C [3] is reported as 91 % of control.
With CC1(C)OC2C(CO)OC(n3ncc(=S)[nH]c3=O)C2O1 (stereo not drawn) the T/C (dose: 100.0 mg/kg/injection, schedule: Q04DX003 (ip), vehicle: saline with Tween-80) was 102 % of control, the T/C (dose: 200.0 mg/kg/injection, schedule: Q04DX003 (ip), vehicle: saline with Tween-80) was 86 % of control and the T/C (dose: 400.0 mg/kg/injection, schedule: Q04DX003 (ip), vehicle: saline with Tween-80) was 97 % of control.
In the case of OC1(c2ccccc2)c2cccc(Cl)c2C(O)(c2ccccc2)c2c(Cl)cccc21 (stereo not drawn), the T/C [4] is reported as 99 % of control, the T/C [5] is reported as 99 % of control and the T/C [6] is reported as 97 % of control.
With O=C(Nc1ccc(Cl)cc1)Nc1nnc(-c2cccc(-c3nnc(NC(=O)Nc4ccc(Cl)cc4)o3)c2)o1 the T/C (dose: 60.0 mg/kg/injection, schedule: Q01DX005 (ip), vehicle: Klucel (hydroxypropylcellulose) (HPC)) was 94 % of control, the T/C (dose: 120.0 mg/kg/injection, schedule: Q01DX005 (ip), vehicle: Klucel (hydroxypropylcellulose) (HPC)) was 96 % of control and the T/C (dose: 240.0 mg/kg/injection, schedule: Q01DX005 (ip), vehicle: Klucel (hydroxypropylcellulose) (HPC)) was 97 % of control.
CCOC(=O)c1c2c(n(-c3ccccc3)c1C)C(=O)c1ccccc1C2=O was tested, and the T/C [7] was 99 % of control, the T/C (dose: 100.0 mg/kg/injection, schedule: Q01DX009 (ip), vehicle: saline) was 92 % of control and the T/C (dose: 200.0 mg/kg/injection, schedule: Q01DX009 (ip), vehicle: saline) was 98 % of control.
In the case of CC12CCC(CC1=O)C2(C)CC#N (stereo not drawn), the T/C (dose: 7.5 mg/kg/injection, schedule: Q01DX005 (ip), vehicle: saline) is reported as 101 % of control and the T/C (dose: 15.0 mg/kg/injection, schedule: Q01DX005 (ip), vehicle: saline) is reported as 100 % of control.
In the case of C[n+]1cccc(C2(O)CCCC2)c1, the T/C [4] is reported as 113 % of control, the T/C [5] is reported as 104 % of control and the T/C [6] is reported as 99 % of control.
O=C(NCCN1CCOCC1)c1cc2ccccc2oc1=O was tested, and the T/C [8] was 93 % of control, the T/C [9] was 91 % of control and the T/C [10] was 92 % of control.
For CC(C)CCCCCCCCCCCCC(=O)NC1C(C)OC(Nc2ncnc3nc[nH]c23)C(O)C1O (stereo not drawn), the T/C (dose: 0.5 mg/kg/injection, schedule: Q01DX009 (ip), vehicle: other) was 107 % of control, the T/C (dose: 1.0 mg/kg/injection, schedule: Q01DX009 (ip), vehicle: other) was 109 % of control and the T/C (dose: 2.0 mg/kg/injection, schedule: Q01DX009 (ip), vehicle: other) was 98 % of control. For the same compound, the T/C (dose: 4.0 mg/kg/injection, schedule: Q01DX009 (ip), vehicle: other) was 106 % of control, the T/C (dose: 6.25 mg/kg/injection, schedule: Q01DX009 (ip), vehicle: other) was 104 % of control and the T/C (dose: 8.0 mg/kg/injection, schedule: Q01DX009 (ip), vehicle: other) was 106 % of control. The T/C (dose: 12.5 mg/kg/injection, schedule: Q01DX009 (ip), vehicle: other) was 91 % of control, the T/C [11] was 88 % of control and the T/C [12] was 91 % of control.
With O=[N+]([O-])c1ccccc1NN=NCCCl the T/C (dose: 3.12 mg/kg/injection, schedule: Q01DX005 (ip), vehicle: Klucel (hydroxypropylcellulose) (HPC)) was 112 % of control, the T/C (dose: 6.25 mg/kg/injection, schedule: Q01DX005 (ip), vehicle: Klucel (hydroxypropylcellulose) (HPC)) was 120 % of control and the T/C [13] was 120 % of control.
In the case of O=C1C[N+]2(Cc3ccccc3)CCC1CC2, the T/C (dose: 12.5 mg/kg/injection, schedule: Q01DX009 (ip), vehicle: saline) is reported as 101 % of control, the T/C (dose: 25.0 mg/kg/injection, schedule: Q01DX009 (ip), vehicle: saline) is reported as 108 % of control and the T/C [7] is reported as 90 % of control.
With COc1cc2c(c(OC)c1OC)-c1ccc(OC)c(=O)cc1C(N(C)C(=O)CO)CC2 (stereo not drawn) the T/C (dose: 0.16 mg/kg/injection, schedule: Q01DX009 (ip), vehicle: Klucel (hydroxypropylcellulose) (HPC)) was 120 % of control and 123 % of control, the T/C (dose: 0.31 mg/kg/injection, schedule: Q01DX009 (ip), vehicle: Klucel (hydroxypropylcellulose) (HPC)) was 155 % of control and the T/C (dose: 0.62 mg/kg/injection, schedule: Q01DX009 (ip), vehicle: Klucel (hydroxypropylcellulose) (HPC)) was 166 % of control. For the same compound, the T/C (dose: 0.62 mg/kg/injection, schedule: Q01DX009 (ip), vehicle: saline) was 189 % of control and the T/C (dose: 1.25 mg/kg/injection, schedule: Q01DX009 (ip), vehicle: Klucel (hydroxypropylcellulose) (HPC)) was 112 % of control and 212 % of control.
In the case of CN(C)C1=C(Cl)C(=O)c2ccccc2C1=O, the T/C (dose: 25.0 mg/kg/injection, schedule: Q01DX009 (ip), vehicle: Klucel (hydroxypropylcellulose) (HPC)) is reported as 100 % of control, the T/C [14] is reported as 100 % of control and the T/C [15] is reported as 97 % of control.
CCOC(=O)c1nnn(Cc2ccccc2)c1N was tested, and the T/C (dose: 12.5 mg/kg/injection, schedule: Q01DX009 (ip), vehicle: saline with Tween-80) was 104 % of control, the T/C (dose: 25.0 mg/kg/injection, schedule: Q01DX009 (ip), vehicle: saline with Tween-80) was 100 % of control and the T/C [4] was 100 % of control. The T/C [5] was 104 % of control.
With N#CCCSC(=S)C1CCCCC1=N (stereo not drawn) the T/C (dose: 50.0 mg/kg/injection, schedule: Q01DX009 (ip), vehicle: saline + alcohol) was 109 % of control, the T/C (dose: 100.0 mg/kg/injection, schedule: Q01DX009 (ip), vehicle: saline + alcohol) was 111 % of control and the T/C (dose: 200.0 mg/kg/injection, schedule: Q01DX009 (ip), vehicle: saline + alcohol) was 109 % of control.
Cn1c(=S)[nH]c2sc3c(c2c1=O)CCCCC3 was tested, and the T/C [8] was 101 % of control, the T/C [9] was 97 % of control and the T/C [10] was 90 % of control.
CCC(CC)(C(=O)Nc1ccc2c(c1)c(=O)c1ccccc1n2C)C(=O)Nc1ccc2c(c1)c(=O)c1ccccc1n2C was tested, and the T/C [16] was 100 % of control, the T/C [17] was 101 % of control and the T/C (dose: 200.0 mg/kg/injection, schedule: Q01DX005 (ip), vehicle: saline with Tween-80) was 105 % of control.
For COc1ccn(C2CCCCO2)c(=O)n1 (stereo not drawn), the T/C [18] was 108 % of control, the T/C [19] was 108 % of control and the T/C [20] was 108 % of control.
In the case of CC1CCCC2CCCOCN12 (stereo not drawn), the T/C (dose: 12.5 mg/kg/injection, schedule: Q01DX005 (ip), vehicle: Klucel (hydroxypropylcellulose) (HPC)) is reported as 107 % of control, the T/C (dose: 12.5 mg/kg/injection, schedule: Q01DX005 (ip), vehicle: saline) is reported as 103 % of control and the T/C [13] is reported as 106 % of control. The T/C (dose: 25.0 mg/kg/injection, schedule: Q01DX005 (ip), vehicle: saline) was 99 % of control, the T/C [1] was 104 % of control and the T/C [18] was 100 % of control and 104 % of control. For the same compound, the T/C [2] was 101 % of control and the T/C [19] was 122 % of control and 98 % of control.
O/N=C\C[n+]1cc2ccccc2cc1/C=N\O was tested, and the T/C [16] was 112 % of control and the T/C [17] was 109 % of control.
With CC1(C)Cc2oc(=Nc3ccccc3)n(-c3ccccc3)c(=O)c2C1 the T/C [14] was 105 % of control, the T/C [15] was 114 % of control and the T/C (dose: 200.0 mg/kg/injection, schedule: Q01DX009 (ip), vehicle: Klucel (hydroxypropylcellulose) (HPC)) was 102 % of control.
COc1cc(Br)c(C(=O)N2CCc3cc([N+](=O)[O-])ccc32)cc1OC was tested, and the T/C [11] was 101 % of control, the T/C [12] was 93 % of control and the T/C (dose: 100.0 mg/kg/injection, schedule: Q01DX009 (ip), vehicle: other) was 89 % of control. For the same compound, the T/C (dose: 200.0 mg/kg/injection, schedule: Q01DX009 (ip), vehicle: other) was 87 % of control.
For CN(C)c1nc(O)c(N=O)c(=O)[nH]1, the T/C (dose: 50.0 mg/kg/injection, schedule: Q04DX002 (ip), vehicle: suspension in saline) was 100 % of control, the T/C (dose: 100.0 mg/kg/injection, schedule: Q04DX002 (ip), vehicle: suspension in saline) was 107 % of control and the T/C (dose: 200.0 mg/kg/injection, schedule: Q04DX002 (ip), vehicle: suspension in saline) was 108 % of control.
For NCP1(=O)CNC(=O)NC1, the T/C [18] was 116 % of control, the T/C [19] was 103 % of control and the T/C [20] was 113 % of control.
With CC(=O)c1ccc(Cl)c(N=Cc2cc(Br)ccc2O)c1 the T/C [1] was 88 % of control, the T/C [2] was 95 % of control and the T/C [3] was 92 % of control.
